# Assay results as given in US8318186B2, “Use of at least a fatty ester for preparing a composition designed to inhibit 5-α-reductase activity, in pharmacology, in particular dermatology, in cosmetics and as food additive” (Laboratoires Expanscience, priority 2000, dated 2012).
# “And” between values parts separate entries of the source, which are not always exact repeats. Identical values can stand only once. Marks after values point to notes of the source that are not given here.
# System: 5α-reductase
# Assay: Fatty acid esters on 5α-reductase activity, conversion of testosterone to 5α-dihydrotestosterone in normal human dermal fibroblast cultures (Example 4)
# Type: cell-based
# Design: key to group by 5α-reductase inhibitory activity: group A with the highest inhibitory activity; group B with an intermediate inhibitory activity
# Settings: for inhibition of the 5α-reductase activity: Example 4, p<0.05; for 5α-DHT formed per culture well, mean / 5α-DHT formed per culture well, single well: after 24 of incubation, DMSO 0.1% (v/v); for 5α-DHT formed per culture well, single well: single replicate; for group by 5α-reductase inhibitory activity: tested at 1, 10 and 100 μg/ml
# Method: The fibroblast culture medium (FCM) consisted of MEM/M199 (3:1, v/v) supplemented with penicillin (50 IU/ml), streptomycin (50 μg/ml), sodium bicarbonate (0.2%, w/v) and FCS (10%, v/v).
# The assay system consisted of normal human dermal fibroblasts cultured as a monolayer. The fibroblasts were isolated from a residue from abdominal plastic surgery performed on a person (subject BIOPREDIC No. I0013). The cells were used at the fifth passage; they were cultured until the monolayers were confluent in FCM medium at 37° C. in a humid atmosphere containing 5% CO2.
# The fibroblast incubation medium (FIM) consisted of FCM supplemented with tritiated testosterone (1.6×10^−7 M, that is 6.32 μCi/ml) and nonradiolabeled testosterone (3.84×10^−6 M)
# The test products and finasteride were taken up in DMSO before being diluted in the incubation medium. […]
# The fibroblast cultures were preincubated in the presence of the test products or of the reference product for 2 hours before adding the substrate, testosterone. For this step, the test products and the reference product were prepared in the FCM medium.
# After preincubation, the fibroblast cultures were incubated in the presence of the test products or of the reference product prepared in the FIM medium for 22 hours at 37° C. in a humid atmosphere containing 5% CO2. Control cultures were incubated in the FIM medium in the absence of test products and of reference product. […]
# Each experimental condition was tested in triplicate.
# After the incubation period, the cells were subjected to the action of ultrasound in the FIM medium. The cellular lysates thus obtained were extracted with dichloromethane. After evaporation, the dry residues were taken up in methanol and were deposited on 60F254 silica plates (MERCK, reference 5554).
# The migration solvent was a mixture of dichloromethane and ether (7:3, v/v) At the end of the migration, the silica plates were read using a BERTHOLD radioactivity scanner.
# The metabolizing of testosterone to 5α-dihydro-testosterone under the various experimental conditions was calculated: the results (areas of the 5α-dihydrotestosterone peaks counted by the BERTHOLD scanner) were expressed in pmol of 5α-dihydro-testosterone formed per culture well. They were also expressed as a percentage of the 5α-reductase activity present in the “DMSO control” group.
# The groups of data (control group and treated groups) were treated by a one-way analysis of variance (ANOVA 1, p<0.05), followed by a DUNNETT's test (p<0.05). The effect of the test products and of the reference product was compared with the “DMSO control” group. The effects of the test products were compared to each other by a two-way analysis of variance (ANOVA 2, p<0.05, factor 1=concentration and factor 2=treatment).
# The same materials and methods are used as in example 3 above.
# It was proposed to evaluate the effect of fatty acid esters on the 5α-reductase activity. An in vitro model of normal human dermal fibroblast cultures was selected. The products tested were chosen from the group of fatty acid esters varying in the length and the functionality of the fatty chain, and the nature of the alkoxy group. These esters are the following: methyl oleate, methyl linoleate, methyl stearate, methyl laurate, methyl undecylenate, butyl oleate, oleyl oleate and methyl ricinoleate.
SMILES,5α-reductase activity as percentage of the “DMSO 0.1% (v/v)” group (1 μg/ml),inhibition of the 5α-reductase activity (1 μg/ml) [%],"5α-DHT formed per culture well, mean (1 μg/ml)","5α-DHT formed per culture well, single well (1 μg/ml)",5α-reductase activity as percentage of the “DMSO 0.1% (v/v)” group (10 μg/ml),inhibition of the 5α-reductase activity (10 μg/ml) [%],"5α-DHT formed per culture well, mean (10 μg/ml)","5α-DHT formed per culture well, single well (10 μg/ml)",5α-reductase activity as percentage of the “DMSO 0.1% (v/v)” group (100 μg/ml),inhibition of the 5α-reductase activity (100 μg/ml) [%],"5α-DHT formed per culture well, mean (100 μg/ml)","5α-DHT formed per culture well, single well (100 μg/ml)",group by 5α-reductase inhibitory activity
"CCCCCCCC/C=C\CCCCCCCC(=O)OCCCC [Butyl oleate, butyl oleate]",79 percentage of the “DMSO 0.1% (v/v)” group,21,9.00* +/− pmol of 5α-DHT formed/culture well,10.64 pmol of 5α-DHT formed/culture well and 8.28 pmol of 5α-DHT formed/culture well and 8.08 pmol of 5α-DHT formed/culture well,55 percentage of the “DMSO 0.1% (v/v)” group,45,6.21* +/− pmol of 5α-DHT formed/culture well,6.24 pmol of 5α-DHT formed/culture well and 5.04 pmol of 5α-DHT formed/culture well and 7.36 pmol of 5α-DHT formed/culture well,51 percentage of the “DMSO 0.1% (v/v)” group,49,5.77* +/− pmol of 5α-DHT formed/culture well,5.20 pmol of 5α-DHT formed/culture well and 6.72 pmol of 5α-DHT formed/culture well and 5.40 pmol of 5α-DHT formed/culture well,A
"CCCCCCCCCCCCCCCCCC(=O)OC [Methyl stearate, methyl stearate]",59 percentage of the “DMSO 0.1% (v/v)” group,41,6.69* +/− pmol of 5α-DHT formed/culture well,6.92 pmol of 5α-DHT formed/culture well and 6.08 pmol of 5α-DHT formed/culture well and 7.08 pmol of 5α-DHT formed/culture well,65 percentage of the “DMSO 0.1% (v/v)” group,35,7.43* +/− pmol of 5α-DHT formed/culture well,8.80 pmol of 5α-DHT formed/culture well and 6.72 pmol of 5α-DHT formed/culture well and 6.76 pmol of 5α-DHT formed/culture well,57 percentage of the “DMSO 0.1% (v/v)” group,43,6.52* +/− pmol of 5α-DHT formed/culture well,6.88 pmol of 5α-DHT formed/culture well and 5.92 pmol of 5α-DHT formed/culture well and 6.76 pmol of 5α-DHT formed/culture well,B
"CCCCCC[C@@H](O)C/C=C\CCCCCCCC(=O)OC [Methyl ricinoleate, methyl ricinoleate]",63 percentage of the “DMSO 0.1% (v/v)” group,37,7.19* +/− pmol of 5α-DHT formed/culture well,6.52 pmol of 5α-DHT formed/culture well and 8.36 pmol of 5α-DHT formed/culture well and 6.68 pmol of 5α-DHT formed/culture well,62 percentage of the “DMSO 0.1% (v/v)” group,38,7.04* +/− pmol of 5α-DHT formed/culture well,7.84 pmol of 5α-DHT formed/culture well and 7.40 pmol of 5α-DHT formed/culture well and 5.88 pmol of 5α-DHT formed/culture well,38 percentage of the “DMSO 0.1% (v/v)” group,62,4.33* +/− pmol of 5α-DHT formed/culture well,3.68 pmol of 5α-DHT formed/culture well and 4.52 pmol of 5α-DHT formed/culture well and 4.80 pmol of 5α-DHT formed/culture well,A
"CCCCC/C=C\C/C=C\CCCCCCCC(=O)OC [Methyl linoleate, methyl linoleate]",58 percentage of the “DMSO 0.1% (v/v)” group,42,6.60* +/− pmol of 5α-DHT formed/culture well,7.04 pmol of 5α-DHT formed/culture well and 6.40 pmol of 5α-DHT formed/culture well and 6.36 pmol of 5α-DHT formed/culture well,60 percentage of the “DMSO 0.1% (v/v)” group,40,6.87* +/− pmol of 5α-DHT formed/culture well,6.00 pmol of 5α-DHT formed/culture well and 6.60 pmol of 5α-DHT formed/culture well and 8.00 pmol of 5α-DHT formed/culture well,71 percentage of the “DMSO 0.1% (v/v)” group,29,8.05* +/− pmol of 5α-DHT formed/culture well,8.56 pmol of 5α-DHT formed/culture well and 8.04 pmol of 5α-DHT formed/culture well and 7.56 pmol of 5α-DHT formed/culture well,B
"C=CCCCCCCCCC(=O)OC [Methyl undecylenate, methyl undecylenate]",60 percentage of the “DMSO 0.1% (v/v)” group,40,6.89* +/− pmol of 5α-DHT formed/culture well,6.56 pmol of 5α-DHT formed/culture well and 7.44 pmol of 5α-DHT formed/culture well and 6.68 pmol of 5α-DHT formed/culture well,68 percentage of the “DMSO 0.1% (v/v)” group,32,7.71* +/− pmol of 5α-DHT formed/culture well,7.68 pmol of 5α-DHT formed/culture well and 7.84 pmol of 5α-DHT formed/culture well and 7.60 pmol of 5α-DHT formed/culture well,74 percentage of the “DMSO 0.1% (v/v)” group,26,8.48* +/− pmol of 5α-DHT formed/culture well,8.68 pmol of 5α-DHT formed/culture well and 7.76 pmol of 5α-DHT formed/culture well and 9.00 pmol of 5α-DHT formed/culture well,B
